Source: patent US9023821B2, “Use of MicroRNA for treating diseases associated with a dysfunction of the cilia in multiciliated epithelial cells” (Centre National de la Recherche Scientifique, priority 2009, dated 2015)

Tests used:
[1] = system: basal cells and pyramidal cells of the airway epithelium; experiment: miRNA expression in sorted basal cells versus pyramidal cells (ciliated + secretory), HTS and Agilent chips; parameters: species or system human
Procedure: After dissociation of the stroma of nasal polyps, the epithelial cells (about 20.10^6) are incubated in PBS-BSA-EDTA for 30 min and then incubated with labeled antibody CD151-PE and anti-TF (tissue factor)-FITC for 20 min, 4° C. (see Hajj, R. et al., Stem Cells 25, 139-148 (2007)). After washing twice, the cells are taken up in PBS-EDTA and incubated with DAPI for labeling the cells whose integrity has been altered.
Cell sorting was carried out on the FACSAria sorter (BD Biosciences) equipped with 3 lasers, blue, red and violet. Dead cells, aggregates and double cells were excluded. The doubly positive population of basal cells (CD151+/FT+) and the negative population of cylindrical cells (containing ciliated cells and mucus-secreting cells) (CD151−/FT−) were selected and sorted at a rate of 5000 events/s ([…]). The purity and identity of the sorted cells were then verified by cytometry and immunocytochemistry.
Like the native airway epithelium, the model of differentiation in vitro used in these tests consists of basal cells, ciliated cells and mucus-secreting cells. In order to identify the repertoires of the miRNAs specific to each of the cellular types, the inventors used cell sorting by flow cytometry by means of specific markers (Hajj, R. et al. 2007). Using this technique, adult airway progenitor cells (corresponding a priori to basal cells) were isolated, selected and sorted (such cells appear doubly positive for tetraspanin CD151 and for the tissue factor) from the pyramidal cells (i.e. ciliated cells and mucus-secreting cells) which appear negative for these same markers. These were purified from polyps or from nasal conchae obtained from 3 separate donors.
After extracting the total RNAs, the expression profiles of the miRNAs were established by means of Agilent® commercial chips or by high-throughput sequencing (HTS). […] For the first time, the inventors thus attribute a repertoire of expression of the miRNAs specifically to separate cellular types of the airway epithelium during differentiation.

[2] = system: human airway epithelial cells (HAECs); experiment: High-throughput sequencing (HTS) of miRNAs at four stages of differentiation of HAECs
Description: The total RNAs were extracted from HAECs cultivated at the air-liquid interface at four stages of differentiation: ALI-D0 (0 day), ALI-D7 (7 days), ALI-FC (during appearance of the first cilia at about 14 days) and ALI-WD (wholly differentiated at about 21 days). The cells are lysed in reagent with Trizol® (Invitrogen). The total RNAs containing small RNAs and microRNAs are purified on Qiagen RNEasy columns (Qiagen) according to the supplier's instructions.
The total RNAs containing small RNAs and microRNAs are isolated as before. The procedure is based on the Applied Biosystems Ligase-Enhanced Genome Detection technology (LEGenD™); the SOLiD™ Small RNA Expression kit (Applied Biosystems, France) was used. With this method it is possible to convert the small RNAs of a sample into a library of double-stranded DNA; it was developed by Applied Biosystems SOLiD™ System for a new generation of high-throughput sequencing.
The high-throughput sequencing of the microRNAs was carried out according to the supplier's recommendations. Briefly, the total RNAs containing the small RNAs are hybridized (65° C., 10 min, then at 16° C., 5 min) and ligated (16° C., 2-16 h in a thermocycler) with the Adaptor Mix A for producing a matrix for sequencing the 5′ end of the small RNAs, or with the Adaptor Mix B for sequencing the 3′ end. The samples are then reverse-transcribed (42° C., 30 min) to synthesize the complementary DNA (cDNA). The library of small RNAs is amplified by PCR and after migration on polyacrylamide gel the amplified small RNAs are cut out and extracted from the gel according to their size (length of about 105-150 bases, according to the supplier's instructions), eluted and resuspended in nuclease-free water. The concentration of nucleic acids is then measured and normalized before proceeding with preparation of the samples for sequencing.
For each microRNA sequenced, the number of sequences of the 5p strand and of the 3p strand of the microRNA was normalized to 10^6 sequences and converted to percentage abundance of expression for each of the microRNAs. The data were then normalized according to a linear model and an empirical Bayesian method using software R. For subsequent analyses, only the microRNAs were retained for which the percentage expression (or abundance) is greater than 1% of the total of the microRNAs in at least one culture condition, with a |Log2 Ratio| below 0.5 and an adjusted P-value below 0.05.

[3] = system: human airway epithelial cells (HAECs); experiment: Agilent miRNA chips, miRNA expression at four stages of differentiation of HAECs; conditions: Table VI
Description: In parallel with the high-throughput sequencing of the microRNAs, the repertoire of expression of the microRNAs (microRNAome) is investigated using the technology of Agilent® microRNA chips. For this, RNA samples from the same patients as before were used, labeled and hybridized on Agilent® miRNA chips (Human miRNA Microarray v2, containing 866 human miRNAs and 89 human viral miRNAs, i.e. all the human miRNAs contained and referenced in Sanger miRBase v.12.0, Agilent Technologies, France) using the “miRNA labeling and hybridization” kit, following the supplier's instructions (Agilent Technologies).
The inventors then used the Agilent miRNA chips to investigate the repertoire of expression of the miRNAs of the human airway epithelium and compare the results obtained in high-throughput sequencing with those obtained with Agilent® commercial miRNA chips.

In the case of “hsa-miR-574-3p: human miRNA, SEQ ID No. 48 (CACGCUCAUGCACACACCCACA; expressed or natural sequence; listed as Homo sapiens)”, the “Modulation of expression of the miRNAs in pyramidal cells (323(−)) relative to basal cells 323(+)” value ([1]; HTS and Agilent chips) is reported as 0.91, the “Intensity of the level of expression in log2 in basal cells (323(+))” value ([1]; basal cells) is reported as 3.53 log2 and the “Intensity of the level of expression in log2 in pyramidal cells (323(−))” value ([1]; pyramidal cells (ciliated + secretory)) is reported as 4.44 log2. The “Modulation (ratio of the level of intensity of expression in log2 in two stages of differentiation) measured by high-throughput sequencing, D7 − D0” value ([2]; D7 − D0, Table VI) was 0.48 log2, the “Modulation (ratio of the level of intensity of expression in log2 in two stages of differentiation) measured by high-throughput sequencing, FC − D7” value ([2]; FC − D7, Table VI) was 0.12 log2 and the “Modulation (ratio of the level of intensity of expression in log2 in two stages of differentiation), D7 − D0” value ([2]; HTS) was 0.48 log2. For the same substance, the “Modulation (ratio of the level of intensity of expression in log2 in two stages of differentiation), FC − D7” value ([2]; HTS) was 0.12 log2, the “Modulation (ratio of the level of intensity of expression in log2 in two stages of differentiation), WD − FC” value ([2]; HTS) was 0.32 log2 and the “Abundance (%), D0” value ([2]; HTS, ALI-D0) was 2.80%. The “Abundance (%), D7” value ([2]; HTS, ALI-D7) was 3.92%, the “Abundance (%), FC” value ([2]; HTS, ALI-FC) was 4.12% and the “Abundance (%), WD” value ([2]; HTS, ALI-WD) was 3.90%. The “Modulation (ratio of the level of intensity of expression in log2 in two stages of differentiation) measured by high-throughput sequencing, WD − D0” value ([2]; WD − D0, Table VI) was 0.92 log2, the “Modulation (ratio of the level of intensity of expression in log2 in two stages of differentiation) measured by high-throughput sequencing, WD − FC” value ([2]; WD − FC, Table VI) was 0.32 log2 and the “Level of intensity of expression in log2 At the differentiated stage (WD) measured in HTS” value ([2]; healthy human airway epithelial tissue, stage WD) was 13.42 log2. The “Level of intensity of expression in log2 measured by high-throughput sequencing, D0” value ([2]; stage D0, Table VI) was 13.64 log2, the “Level of intensity of expression in log2 measured by high-throughput sequencing, D7” value ([2]; stage D7, Table VI) was 14.12 log2 and the “Level of intensity of expression in log2 measured by high-throughput sequencing, FC” value ([2]; stage FC, Table VI) was 14.24 log2. For the same substance, the “Level of intensity of expression in log2 measured by high-throughput sequencing, WD” value ([2]; stage WD, Table VI) was 14.56 log2, the “Modulation (ratio of the level of intensity of expression in log2 in two stages of differentiation) measured with the Agilent chips, D7 − D0” value ([3]; D7 − D0) was 1.69 log2 and the “Modulation (ratio of the level of intensity of expression in log2 in two stages of differentiation) measured with the Agilent chips, FC − D7” value ([3]; FC − D7) was −0.46 log2. For the same substance, the “Modulation (ratio of the level of intensity of expression in log2 in two stages of differentiation) measured with the Agilent chips, WD − D0” value ([3]; WD − D0) was 1.04 log2, the “Modulation (ratio of the level of intensity of expression in log2 in two stages of differentiation) measured with the Agilent chips, WD − FC” value ([3]; WD − FC) was −0.18 log2 and the “Level of intensity of expression in log2 measured with the Agilent chips, D0” value ([3]; stage D0) was 4.73 log2. The “Level of intensity of expression in log2 measured with the Agilent chips, D7” value ([3]; stage D7) was 6.42 log2, the “Level of intensity of expression in log2 measured with the Agilent chips, FC” value ([3]; stage FC) was 5.96 log2 and the “Level of intensity of expression in log2 measured with the Agilent chips, WD” value ([3]; stage WD) was 5.77 log2.
